The values below come from patent publication US4302472A, “Substituted N-(β-alkoxy-ethyl)-N-(4-phenoxy-benzyl)-dichloro-acetamides and process for their preparation” (Farmitalia Carlo Erba S.p.A., priority 1977, dated 1981).

Where only a bound is given, the exact number is not on record here.

A short description of data set [1]: Approximate acute toxicity (LD50) in the mouse, single administration per os. The following applies: in vivo, po, measured on the seventh day. The protocol:
The toxicity of the compounds of the invention is quite negligible. For example, for the compounds A and B mentioned in the foregoing Tables the approximate acute toxicity (LD50) in the mouse, determined with single administration of increasing doses and measured on the seventh day of treatment, was, per os, much higher than 800 mg/kg. Similar LD50 are found also for the other compounds of the invention, in particular for the compounds: […]

For data set [2], the system named is Entamoeba histolytica Meah. Briefly: In vivo antiamebic activity in intestinal infection in the rat. More on the design: species or system albino rats (strain:Wistar CFHB); key to Mean Score: mean score, 0 = no amoebae/ulceration to 5 = >half cecum ulcerated. The settings on record: for Mean Score: by gavage, 20 animals, score 0 (no amoebae, no ulceration) to 5, vehicle control 3.5; for ED50: Entamoeba histolytica, po, calculated on the number of animals with score = 0, rat, by gavage twice a day for 21/2 days. The procedure: The in vivo antiamebic activity in the intestinal infection was determined with a method similar to the method described by Jones (Ann.trop.Med.Paras., 40, 130-140, 1946), as reported hereunder. Young, specific pathogen free albino rats (strain:Wistar CFHB) weighing 30-35 g and fed on a low-protein diet, were infected by intracecal injection with a suspension of trophozoites of Entamoaba histolytica Meah (250,000/rat) containing 3% of Wilson […] mucin. The substances under test and the reference products were administered in serial doses, by gavage twice a day for 21/2 days. The therapeutic effect was determined on the fifth day after infection on the basis of the presence or absence of amebic ulcers in the cecal mucosa and of viable amoebae in the cecal mucosa and in the fecal content of the cecum.
Each animal was assigned a score, according to the following scale:
score 0=no amoebae, no ulceration;
score 1=from 1 to 20 amoebae per faecal smear; no amoeba in the scrape of caecal mucosa; no ulceration;
score 2=from 20 to a very large number of amoebae per smear of feces; no ameoba in the mucosal scrape; no ulceration;
score 3=amoebae originating from microscopic lesions of the cecal mucosa;
score 4=microscopic lesions of the cecal mucosa;
score 5=more than half the cecum ulcerated by amoebic lesions.
The antiamebic activity was expressed both as ED50 calculated according to the number of animals totally free of amoebae (score=0) and as mean score for each dose level.

Data set [3] deals with Entamoeba histolytica Meah. Briefly: In vitro antiamebic activity by serial dilutions in monophasic Pavlova medium. The format is cell-based. The settings on record: 48 hours, 37° C.; for minimal amoebicidal concentration, mean: mean of Dosage I-X. The protocol: The in vitro activity on Entamoeba histolytica Meah was determined on the products under test and on reference compounds, by the method of serial dilutions (ratio 1:1.5) in monophasic Pavlova medium with inoculation of 30,000 protozoa/ml and with incubation at 37° C. for 48 hours.
The level of activity of the compounds was determined by means of direct microscopical examination at 125 and 500 magnifications of the entire sediment of each culture. The results were expressed as minimal amoebicidal concentration in μg/ml.

In data set [4] the test system is amoebae within the intestinal wall. Briefly: Activity on amoebae within the intestinal wall. The following applies: in vivo.
The next data set in a line: Absorption. The following applies: in vivo.

In the case of `CCOCCN(Cc1ccc(Oc2ccc(N)cc2)cc1)C(=O)C(Cl)Cl` [Compound A, N-(β-ethoxy-ethyl)-N-[4-phenoxy-(4'-amino)-benzyl]-dichloroacetamide], in data set [1], the LD50 at 168 h is > 800 mg/kg. Also, the “Mean Score” value turned out to be 1.6 in data set [2] (6.2 mg/kg × 5 times), 1.1 in data set [2] (12.5 mg/kg × 5 times), 1.0 in data set [2] (25 mg/kg × 5 times) and 0.5 in data set [2] (50 mg/kg × 5 times). In addition, the ED50 in data set [2] was 19 mg/kg. The minimal amoebicidal concentration in data set [3] (Dosage I) turned out to be 0.017 µg/mL; in data set [3] (Dosage II), 0.017 µg/mL; in data set [3] (Dosage III), 0.017 µg/mL; in data set [3] (Dosage IV), 0.026 µg/mL; in data set [3] (Dosage IX), 0.026 µg/mL; in data set [3] (Dosage V) it was 0.011 µg/mL. Further, the minimal amoebicidal concentration worked out at 0.011 µg/mL in data set [3] (Dosage VI), 0.026 µg/mL in data set [3] (Dosage VII), 0.017 µg/mL in data set [3] (Dosage VIII) and 0.026 µg/mL in data set [3] (Dosage X). In addition, the “minimal amoebicidal concentration, mean” value in data set [3] stood at 0.019 µg/mL.
In the case of `CCOCCN(Cc1ccc(Oc2ccc(NC(=O)CN)cc2)cc1)C(=O)C(Cl)Cl` [N-(β-ethoxy-ethyl)-N-[4-phenoxy-(4'-glycinylamino)-benzyl]-dichloroacetamide], the “activity on amoebae within the intestinal wall” value in data set [4] is reported as “active on amoebae within the intestinal wall itself”. For the same compound, the absorption result in the data set “Absorption” is reported as “absorbed to a greater extent”.
Consider `CCOCCN(Cc1ccc(Oc2ccc(NC(C)=O)cc2)cc1)C(=O)C(Cl)Cl` [Compound B, N-(β-ethoxy-ethyl)-N-[4-phenoxy-(4'-acetamido)-benzyl]-dichloroacetamide], for which, in data set [1], the LD50 at 168 h is > 800 mg/kg. The minimal amoebicidal concentration was found to be 0.004 µg/mL in data set [3] (Dosage I); 0.005 µg/mL in data set [3] (Dosage II); 0.007 µg/mL in data set [3] (Dosage III); 0.013 µg/mL in data set [3] (Dosage IV); 0.017 µg/mL in data set [3] (Dosage IX); 0.017 µg/mL in data set [3] (Dosage V). Moreover, the minimal amoebicidal concentration in data set [3] (Dosage VI) worked out at 0.008 µg/mL; in data set [3] (Dosage VII), 0.003 µg/mL; in data set [3] (Dosage VIII) it was 0.026 µg/mL; in data set [3] (Dosage X), 0.017 µg/mL. Moreover, the “minimal amoebicidal concentration, mean” value in data set [3] is 0.011 µg/mL.
Turning to `CCOCCN(Cc1ccc(CN(CCOCC)C(=O)C(Cl)Cl)cc1)C(=O)C(Cl)Cl` [Teclozan], the minimal amoebicidal concentration in data set [3] (Dosage I) was determined as 0.058 µg/mL; in data set [3] (Dosage II), 0.058 µg/mL; in data set [3] (Dosage III) it was 0.087 µg/mL; in data set [3] (Dosage IV) it was 0.058 µg/mL; in data set [3] (Dosage IX), 0.087 µg/mL; in data set [3] (Dosage V), 0.087 µg/mL. In addition, the minimal amoebicidal concentration in data set [3] (Dosage VI) was 0.058 µg/mL; in data set [3] (Dosage VII), 0.087 µg/mL; in data set [3] (Dosage VIII), 0.087 µg/mL; in data set [3] (Dosage X) it was 0.058 µg/mL. Also, the “minimal amoebicidal concentration, mean” value in data set [3] worked out at 0.072 µg/mL.
Regarding `CN(C(=O)C(Cl)Cl)c1ccc(OC(=O)c2ccco2)cc1` [Diloxanide furoate], the minimal amoebicidal concentration in data set [3] (Dosage I) was 0.44 µg/mL; in data set [3] (Dosage II) it was 0.44 µg/mL; in data set [3] (Dosage III) it was 0.44 µg/mL; in data set [3] (Dosage IV), 0.29 µg/mL; in data set [3] (Dosage IX) it was 0.19 µg/mL; in data set [3] (Dosage V), 0.29 µg/mL. Further, the minimal amoebicidal concentration was 0.19 µg/mL in data set [3] (Dosage VI), 0.29 µg/mL in data set [3] (Dosage VII), 0.19 µg/mL in data set [3] (Dosage VIII) and 0.19 µg/mL in data set [3] (Dosage X). Moreover, in data set [3], the “minimal amoebicidal concentration, mean” value came out at 0.30 µg/mL.
Regarding `CCOCCN(Cc1ccc(Oc2ccc([N+](=O)[O-])cc2)cc1)C(=O)C(Cl)Cl` [Etofamide], the “Mean Score” value in data set [2] (6.2 mg/kg × 5 times) is recorded as 3.3; in data set [2] (12.5 mg/kg × 5 times), 1.6; in data set [2] (25 mg/kg × 5 times), 1.3; in data set [2] (50 mg/kg × 5 times) it was 1.0. Moreover, the ED50 in data set [2] is 29 mg/kg. The minimal amoebicidal concentration in data set [3] (Dosage I) came to 0.026 µg/mL; in data set [3] (Dosage II), 0.026 µg/mL; in data set [3] (Dosage III) it was 0.058 µg/mL; in data set [3] (Dosage IV) it was 0.058 µg/mL; in data set [3] (Dosage IX), 0.058 µg/mL; in data set [3] (Dosage V), 0.026 µg/mL. Besides, the minimal amoebicidal concentration was 0.017 µg/mL in data set [3] (Dosage VI), 0.039 µg/mL in data set [3] (Dosage VII), 0.017 µg/mL in data set [3] (Dosage VIII) and 0.039 µg/mL in data set [3] (Dosage X). For the same compound, in data set [3], the “minimal amoebicidal concentration, mean” value came out at 0.036 µg/mL.
